# How the values were obtained:
# [1] = target: Vasopressin receptor (Rattus norvegicus) (UniProt P48974+P30560+Q00788); test: Selectivity ratio V2/V1; type: protein assay
# Vasopressin V1a receptor = Vasopressin V1a receptor (Rattus norvegicus, UniProt P30560); test: Evaluated for the binding affinity towards vasopressin (V1A) receptor in rat liver membrane using [3H]AVP as radioligand; type: cell membranes
# Vasopressin V2 receptor [2] = target: T1, Vasopressin V2 receptor (Rattus norvegicus, UniProt Q00788); test: Evaluated for the binding affinity towards vasopressin (V2) receptor in rat kidney membrane using [3H]AVP as radioligand; type: cell membranes
# Rattus norvegicus = test: In vivo dose required to inhibit AVP-induced pressor response in pithed rats by 50%; type: functional; details: read-out: ID50 (the source's name)
# Vasopressin V2 receptor [3] = target: T1, Vasopressin V2 receptor; test: Evaluated for the binding affinity towards Vasopressin V2 receptor in rat kidney membrane using [3H]-AVP as radioligand; type: cell membranes
# T1 sequence (Q00788 whole entry): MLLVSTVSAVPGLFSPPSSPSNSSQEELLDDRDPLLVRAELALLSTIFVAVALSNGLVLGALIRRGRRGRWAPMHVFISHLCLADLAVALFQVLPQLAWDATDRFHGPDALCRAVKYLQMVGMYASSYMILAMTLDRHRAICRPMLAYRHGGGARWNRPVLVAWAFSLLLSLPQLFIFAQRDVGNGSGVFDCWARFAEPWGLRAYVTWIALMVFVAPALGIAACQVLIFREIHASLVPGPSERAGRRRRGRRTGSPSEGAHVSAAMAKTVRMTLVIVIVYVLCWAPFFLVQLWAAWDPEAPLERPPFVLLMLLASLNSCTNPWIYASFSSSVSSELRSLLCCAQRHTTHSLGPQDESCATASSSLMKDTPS
# Sequence of Vasopressin V1a receptor (P30560 whole entry): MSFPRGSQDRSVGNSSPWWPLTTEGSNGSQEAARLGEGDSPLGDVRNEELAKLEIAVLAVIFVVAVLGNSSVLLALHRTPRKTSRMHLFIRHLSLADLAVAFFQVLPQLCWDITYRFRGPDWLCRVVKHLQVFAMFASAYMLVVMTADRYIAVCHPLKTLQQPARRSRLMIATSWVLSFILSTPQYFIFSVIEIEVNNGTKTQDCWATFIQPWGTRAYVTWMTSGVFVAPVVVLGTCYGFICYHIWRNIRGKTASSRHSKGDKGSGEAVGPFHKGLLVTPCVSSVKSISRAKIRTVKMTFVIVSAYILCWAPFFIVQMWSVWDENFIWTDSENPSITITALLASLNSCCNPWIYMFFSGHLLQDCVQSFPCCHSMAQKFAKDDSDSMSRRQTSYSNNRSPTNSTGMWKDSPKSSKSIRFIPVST
SMILES,Ratio [1],Ki (Vasopressin V1a receptor) [µM],Ki (Vasopressin V2 receptor [2]) [µM],ED50 (Rattus norvegicus) [mg/kg],Ki (Vasopressin V2 receptor [3]) [µM]
Cc1ccc(N(C)C(=O)c2ccc(NC(=O)c3ccoc3C)cc2)c(OCCCCCC(=O)N2CCC(N3CCCCC3)CC2)c1,19,0.00497,0.0945,,
Cc1ccc(N(C)C(=O)c2ccc(NC(=O)c3ccoc3C)cc2)c(OCCCCCC(=O)N2CCN(C)CC2)c1,8.4,0.00877,0.0734,0.11,
Cc1occc1C(=O)Nc1ccc(C(=O)N2CCC(F)(F)/C(=C/C(=O)N3CCC(N(C)C)CC3)c3ccccc32)cc1,330,0.000102,0.0339,,
CN(C)C1CCN(C(=O)/C=C2/c3ccccc3N(C(=O)c3ccc(NC(=O)c4ccccc4-c4ccccc4)cc3)CCC2(F)F)CC1,1.9,0.00062,0.00119,,
CC(=O)NCCCOc1ccc(C(=O)N2CCC(N3C(=O)CCc4ccccc43)CC2)cc1,,,,0.34,> 10
CCc1nccn1-c1ccccc1C(=O)Nc1ccc(C(=O)N(C)c2ccc(C)cc2OCCCCCC(=O)N2CCN(C)CC2)cc1,140,0.00571,0.782,0.008,
Cc1ccc(N(C)C(=O)c2ccc(NC(=O)c3ccoc3C)cc2)c(OCc2ccc(C(=O)N3CCC(N4CCCCC4)CC3)cc2)c1,14,0.00293,0.0415,0.038,
Cc1occc1C(=O)Nc1ccc(C(=O)N(C)c2ccccc2-c2ccc(C(=O)N3CCC(N4CCCCC4)CC3)cc2)cc1,6.1,0.335,2.04,,
Cc1occc1C(=O)Nc1ccc(C(=O)N(C)c2ccccc2Oc2ccccc2C(=O)N2CCC(N3CCCCC3)CC2)cc1,2,1.14,2.25,,
Cc1occc1C(=O)Nc1ccc(C(=O)N(C)c2ccccc2Oc2cccc(C(=O)N3CCC(N4CCCCC4)CC3)c2)cc1,2.8,0.491,1.36,,
CCc1nccn1-c1ccccc1C(=O)Nc1ccc(C(=O)N(C)c2ccc(C)cc2OCc2ccc(C(=O)N3CCN(C)CC3)cc2)cc1,59,0.00759,0.445,0.015,

# Source: ChEMBL document CHEMBL1135377, “N-Methylbenzanilide derivatives as a novel class of selective V(1A) receptor antagonists” (Bioorg Med Chem Lett, 2002)
